The numbers were not newly measured in publication PMC5867622, “Microginins from a Microcystis sp. Bloom Material Collected from the Kishon Reservoir, Israel” (Marine Drugs, 2018), which cites them from elsewhere.

One data set relates to ACE. The following applies: cited from earlier work.
The test system of another data set is APM. Conditions: cited from earlier work; for IC50: Table S1; for Activity: APM (ni): Table S1, 'APM, ACE-ni'.
[1] abbreviates: ref 6 (Ishida et al., Tetrahedron 2000), read-out: Activity: APM.
Where [2] appears, read: Table S1, ref 6 (Ishida et al., Tetrahedron 2000).
Setting [3] is: ref 5 (Kodani et al., FEMS Microbiol. Lett. 1999), read-out: Activity: AMP.
Where [4] appears, read: Table S1, ref 5 (Kodani et al., FEMS Microbiol. Lett. 1999).
[5] abbreviates: ref 4 (Ishida et al., Tetrahedron 1998).
[6] abbreviates: Table S1, ref 4 (Ishida et al., Tetrahedron 1998).
Setting [7] is: ref 6 (Ishida et al., Tetrahedron 2000).
Setting [8] is: ref 9 (Sano et al., Phytochem. 2005), read-out: Activity: APM.
Setting [9] is: Table S1, ref 9 (Sano et al., Phytochem. 2005).
Where [10] appears, read: ref 2 (Ishida et al., Tetrahedron 1997), read-out: Activity: APM.
Where [11] appears, read: Table S1, ref 2 (Ishida et al., Tetrahedron 1997).
[12] abbreviates: ref 4 (Ishida et al., Tetrahedron 1998), read-out: Activity: APM.

Like-named read-outs stand apart in the source and are kept apart here. Square brackets hold non-standard residues; d marks the D form. Peptide text beside a SMILES is read from it. * marks the point of attachment. X15 = N[C@@H](CCCCCCC(Cl)Cl)[C@H](O)C(=O)*; X1 = N[C@H](CCCCCCC(Cl)Cl)[C@@H](O)C(=O)*; X14 = CCCCCCC[C@@H](N)[C@@H](O)C(=O)*; X6 = N[C@@H](CCCCCCCCl)[C@H](O)C(=O)*; X7 = N[C@H](CCCCCCCCl)[C@@H](O)C(=O)*; X10 = CCCCCCC[C@@H](N)[C@H](O)C(=O)*; NMeY = CN[C@@H](Cc1ccc(O)cc1)C(=O)O; X3 = CCCCCCC[C@H](NC)[C@H](O)C(=O)*; dNMeY = CN[C@H](Cc1ccc(O)cc1)C(=O)O; hTyr = N[C@@H](CCc1ccc(O)cc1)C(=O)O; X12 = N[C@H](CCCCCCC(Cl)Cl)CC(=O)*; X9 = CCCCCCC[C@H](N)[C@H](O)C(=O)*; NMeL = CN[CH](CC(C)C)C(=O)O; X2 = N[C@H](CCCCCCCCl)CC(=O)*; X5 = NC(CCCCCCCCl)C(O)C(=O)*; NMeV = CN[C@H](C(=O)O)C(C)C; X8 = CCCCCCCC(N)C(O)C(=O)*

Regarding `CCCCCCCC(N)C(O)C(=O)N[C@@H](C)C(=O)N[C@H](C(=O)N(C)[C@@H](Cc1ccc(O)cc1)C(=O)N[C@@H](Cc1ccc(O)cc1)C(=O)O)C(C)C` (stereo partly drawn) [Microginin] (X8-AV[NMeY]Y-OH), the Activity result with ACE (Table S1, activity named without value, ref 1 (Okino et al., Tetrahedron Lett. 1993)) is on record as “ACE”.
`CCCCCCC[C@H](NC)[C@H](O)C(=O)N[C@H](C(=O)N(C)[C@H](C(=O)N(C)[C@@H](Cc1ccc(O)cc1)C(=O)N[C@@H](Cc1ccc(O)cc1)C(=O)O)C(C)C)C(C)C` [Microginin 478] (X3-V[NMeV][NMeY]Y-OH): the IC50 is 132 µM in the data set on APM (setting [1]) and 13.2 µM with ACE (setting [2]).
For the molecule `CCCCCCC[C@H](N)[C@H](O)C(=O)N(C)[C@@H](CC[S+](C)[O-])C(=O)N[C@@H](Cc1ccc(O)cc1)C(=O)N[C@@H](Cc1ccc(O)cc1)C(=O)O` (stereo partly drawn) [Microginin 690], in the data set on ACE (Table S1, ref 16 (Product of Santa Cruz Biotechnology)), the Activity entry is given as “ACE inhibitor”.
For `C[C@H](NC(=O)C(O)C(N)CCCCCCCCl)C(=O)N1CCC[C@H]1C(=O)N[C@@H](Cc1ccc(O)cc1)C(=O)N[C@@H](Cc1ccc(O)cc1)C(=O)O` (stereo partly drawn) [Microginin T1] (X5-APYY-OH), the IC50 is 2.7 µM in the data set with APM (setting [3]) and 6.8 µM with ACE (setting [4]).
Regarding `CC(C)C[C@H](NC(=O)[C@H](Cc1ccc(O)cc1)NC(=O)C[C@H](N)CCCCCCCCl)C(=O)N(C)[C@@H](Cc1ccc(O)cc1)C(=O)N1CCC[C@H]1C(=O)O` [Microginin 99-A] (X2-YL[NMeY]P-OH), in the data set on APM (setting [5]), the “Activity: APM (ni)” value is reported as “ni”. In addition, the “Activity: ACE (ni)” value in the data set on ACE (setting [6]) was “ni”.
Consider `CC[C@H](C)[C@H](NC(=O)[C@H](O)[C@H](N)CCCCCCCCl)C(=O)N(C)[C@@H](CC(C)C)C(=O)N1CCC[C@H]1C(=O)N[C@@H](Cc1ccc(O)cc1)C(=O)O` [Microginin 91-D] (X7-I[NMeL]PY-OH), for which the IC50 in the data set on APM (setting [1]) was 43.4 µM. For the same molecule, in the data set on ACE (setting [2]), the “Activity: ACE (ni)” value was “ni”.
Regarding `CCC(C)C(NC(=O)C(O)C(N)CCCCCCCCl)C(=O)N(C)C(CC(C)C)C(=O)N1CCCC1C(=O)O` (stereo not drawn) [Microginin 91-B], the “Activity: APM (ni)” value with APM (setting [7]) is given as “ni”. For the same molecule, the “Activity: ACE (ni)” value in the data set with ACE (setting [2]) is “ni”.
For the molecule `CCCCCCC[C@@H](N)[C@@H](O)C(=O)N[C@H](C(=O)N(C)[C@@H](CC(C)C)C(=O)N1CCC[C@H]1C(=O)N[C@@H](Cc1ccc(O)cc1)C(=O)O)[C@@H](C)CC` [Microginin 91-C] (X14-I[NMeL]PY-OH), the IC50 in the data set on APM (setting [1]) is 71.1 µM. Besides, the “Activity: ACE (ni)” value with ACE (setting [2]) was “ni”.
With `CCCCCCC[C@@H](N)[C@H](O)C(=O)N[C@@H](C)C(=O)N[C@H](C(=O)N(C)[C@@H](Cc1ccc(O)cc1)C(=O)N[C@@H](CCc1ccc(O)cc1)C(=O)O)C(C)C` [Cyanostatin A] (X10-AV[NMeY][hTyr]-OH), the IC50 is 55 µM with APM (setting [8]) and 150 µM with ACE (setting [9]).
For `CC(C)[C@H](NC(=O)[C@@H](O)[C@@H](N)CCCCCCC(Cl)Cl)C(=O)N(C)[C@H](C(=O)N(C)[C@@H](Cc1ccc(O)cc1)C(=O)N1CCC[C@H]1C(=O)N[C@@H](Cc1ccc(O)cc1)C(=O)O)C(C)C` [Microginin 299-B] (X15-V[NMeV][NMeY]PY-OH), the IC50 in the data set on APM (setting [10]) was 7.1 µM. Further, the “Activity: ACE (ni)” value in the data set with ACE (setting [11]) was “ni”.
As to `CC[C@H](C)[C@H](NC(=O)[C@H](O)[C@H](N)CCCCCCC(Cl)Cl)C(=O)N(C)[C@@H](CC(C)C)C(=O)N1CCC[C@H]1C(=O)N[C@@H](Cc1ccc(O)cc1)C(=O)O` [Microginin 91-E] (X1-I[NMeL]PY-OH), in the data set with APM (setting [1]), the IC50 was 19.5 µM. The “Activity: ACE (ni)” value in the data set on ACE (setting [2]) was “ni”.
With `CCCCCCCC(N)C(O)C(=O)N[C@@H](C)C(=O)N1CCC[C@H]1C(=O)N[C@@H](Cc1ccc(O)cc1)C(=O)N[C@@H](Cc1ccc(O)cc1)C(=O)O` (stereo partly drawn) [Microginin T2] (X8-APYY-OH), the IC50 with APM (setting [3]) was 2.9 µM; in the data set with ACE (setting [4]) it was 10 µM.
For the molecule `CCCCCCC[C@H](N)[C@H](O)C(=O)N(C)[C@@H](CCSC)C(=O)N[C@@H](Cc1ccc(O)cc1)C(=O)N[C@@H](Cc1ccc(O)cc1)C(=O)O` [Microginin 674], in the data set with ACE (Table S1, ref 15 (Product of LKT Laboratories, Inc.)), the Activity entry was “ACE inhibitor”.
With `CCCCCCC[C@H](NC)[C@H](O)C(=O)N[C@@H](Cc1ccc(O)cc1)C(=O)N(C)[C@H](C(=O)N(C)[C@@H](Cc1ccc(O)cc1)C(=O)N1CCC[C@@H]1C(=O)N[C@@H](Cc1ccc(O)cc1)C(=O)O)C(C)C` [Microginin 51-B] (X3-Y[NMeV][NMeY][dP]Y-OH), in the data set on APM (setting [7]), the “Activity: APM (ni)” value was “ni”. Further, the “Activity: ACE (ni)” value in the data set on ACE (setting [2]) was “ni”.
Take `CC(C)C[C@H](NC(=O)[C@H](Cc1ccc(O)cc1)NC(=O)C[C@H](N)CCCCCCC(Cl)Cl)C(=O)N(C)[C@@H](Cc1ccc(O)cc1)C(=O)N1CCC[C@H]1C(=O)O` [Microginin 99-B] (X12-YL[NMeY]P-OH): in the data set with APM (setting [5]), the “Activity: APM (ni)” value is on record as “ni”. In addition, the “Activity: ACE (ni)” value with ACE (setting [6]) is “ni”.
In the case of `CCCCCCC[C@H](N)[C@H](O)C(=O)N[C@@H](Cc1ccc(O)cc1)C(=O)N(C)[C@H](C(=O)N(C)[C@@H](Cc1ccc(O)cc1)C(=O)N1CCC[C@@H]1C(=O)N[C@@H](Cc1ccc(O)cc1)C(=O)O)C(C)C` [Microginin 51-A] (X9-Y[NMeV][NMeY][dP]Y-OH), the IC50 in the data set on APM (setting [1]) is 4.9 µM. Also, the “Activity: ACE (ni)” value with ACE (setting [2]) is “ni”.
Turning to Microginin 91-A, in the data set on APM (setting [7]), the “Activity: APM (ni)” value was “ni”. In the data set on ACE (setting [2]), the “Activity: ACE (ni)” value is “ni”.
In the case of `CC(C)[C@H](NC(=O)[C@H](O)[C@H](N)CCCCCCC(Cl)Cl)C(=O)N(C)[C@H](C(=O)N(C)[C@H](Cc1ccc(O)cc1)C(=O)N1CCC[C@@H]1C(=O)O)C(C)C` [Microginin 299-D] (X1-V[NMeV][dNMeY][dP]-OH), the IC50 in the data set with APM (setting [12]) is 8.5 µM. Moreover, the “Activity: ACE (ni)” value with ACE (setting [6]) was “ni”.
As to `CCCCCCCC(N)C(O)C(=O)NC(Cc1ccc(O)cc1)C(=O)N(C)C(CC(C)C)C(=O)N1CCCC1C(=O)NC(Cc1ccc(O)cc1)C(=O)O` (stereo not drawn) [Cyanostatin B] (X8-Y[NMeL]PY-OH; configuration not given here), the IC50 with APM (setting [8]) is 16 µM; in the data set with ACE (setting [9]) it was 170 µM.
Take `CC(C)[C@H](NC(=O)[C@@H](O)[C@@H](N)CCCCCCCCl)C(=O)N(C)[C@H](C(=O)N(C)[C@@H](Cc1ccc(O)cc1)C(=O)N1CCC[C@H]1C(=O)N[C@@H](Cc1ccc(O)cc1)C(=O)O)C(C)C` [Microginin 299-A] (X6-V[NMeV][NMeY]PY-OH): the IC50 in the data set with APM (setting [10]) is 5.2 µM. Also, the “Activity: ACE (ni)” value in the data set with ACE (setting [11]) is “ni”.
Turning to `CCCCCCC[C@H](N)[C@H](O)C(=O)N[C@H](C(=O)N(C)[C@H](C(=O)N(C)[C@@H](Cc1ccc(O)cc1)C(=O)N1CCC[C@H]1C(=O)N[C@@H](Cc1ccc(O)cc1)C(=O)O)C(C)C)C(C)C` [Microginin 299-C] (X9-V[NMeV][NMeY]PY-OH), the IC50 with APM (setting [12]) was 2.3 µM. In addition, the “Activity: ACE (ni)” value in the data set with ACE (setting [6]) is “ni”.
